By IC50 is commonly meant the concentration at which inhibition is half-maximal. The term Papp A→B denotes how fast a substance crosses the layer from the apical side. One may read the Papp as the rate of passage across a membrane or cell layer, normalised by area and donor concentration.

In data set [1] the target is Serine/threonine-protein kinase pim-2 (Homo sapiens, UniProt Q9P1W9). Nature of the data set: Inhibition of human PIM2 using ARK-RERTYSFGHHA as substrate incubated for 60 mins prior to substrate addition by topcount scintillation counting analysis in presence of [P33gamma]-ATP.
Data set [2] concerns the target Serine/threonine-protein kinase pim-1 (Homo sapiens, UniProt P11309). Nature of the data set: Inhibition of human PIM1 using ARK-RERTYSFGHHA as substrate incubated for 60 mins prior to substrate addition by topcount scintillation counting analysis in presence of [P33gamma]-ATP.
The nature of data set [3]: Cytotoxicity against mouse BA/F3 cells overexpressing PIM1 after 72 hrs by CellTitre-Glo assay. It is filed as functional, cell-based. The settings on record: BaF3, 72 h.
Data set [4] in a line: Intrinsic clearance in human liver microsomes after 5 mins by LC-MS/MS analysis. It is filed as ADME. The settings on record: read-out: CLH. On the technique in general: Liver microsomes are vesicles of endoplasmic reticulum, rich in cytochrome P450 enzymes.
A short description of data set [5]: Apparent permeability from apical to basolateral side in human Caco2 cells after 120 mins by LC-MS/MS analysis. The settings on record: Caco-2. In general terms: Passage across Caco-2 layers is used to estimate intestinal permeability.
Data set [6] is described as follows: Apparent permeability by PAMPA. It is filed as physicochemical. (In general: In PAMPA a lipid-coated filter parts donor from acceptor wells.)
Data set [7] is described as follows: Thermodynamic aqueous solubility of the compound at pH 7. It is filed as physicochemical. The conditions noted are these: buffer.
The target of data set [8] is Platelet-derived growth factor receptor (Homo sapiens, UniProt P09619+P16234). Nature of the data set: Inhibition of PDGFR (unknown origin). It is filed as protein-complex assay.
Another data set concerns the target Casein kinase II (Homo sapiens, UniProt P19784+P67870+P68400). Nature of the data set: Inhibition of CK2 (unknown origin). It is filed as protein-complex assay.
Data set [9] has as its target Cyclin-dependent kinase 2 (Homo sapiens, UniProt P24941). Description: Inhibition of CDK2 (unknown origin).
The target in data set [10] is Cell division cycle 7-related protein kinase (Homo sapiens, UniProt O00311). Description: Inhibition of CDC7 (unknown origin).
For data set [11], the target named is Glycogen synthase kinase-3 beta (Homo sapiens, UniProt P49841). Nature of the data set: Inhibition of GSK3beta (unknown origin).
Chain of Glycogen synthase kinase-3 beta (P49841 whole entry): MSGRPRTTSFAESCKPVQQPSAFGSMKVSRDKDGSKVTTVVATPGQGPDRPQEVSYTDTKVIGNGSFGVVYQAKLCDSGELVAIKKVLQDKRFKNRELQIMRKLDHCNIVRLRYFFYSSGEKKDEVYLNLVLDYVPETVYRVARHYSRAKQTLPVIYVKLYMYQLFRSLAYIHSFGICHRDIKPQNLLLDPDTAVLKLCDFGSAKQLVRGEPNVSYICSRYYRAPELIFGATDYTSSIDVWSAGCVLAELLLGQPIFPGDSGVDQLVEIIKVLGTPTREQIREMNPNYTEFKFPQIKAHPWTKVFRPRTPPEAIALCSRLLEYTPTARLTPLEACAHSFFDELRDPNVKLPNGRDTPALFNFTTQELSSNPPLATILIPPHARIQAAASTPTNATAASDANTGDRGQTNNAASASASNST

Chain of Serine/threonine-protein kinase pim-2 (Q9P1W9 whole entry): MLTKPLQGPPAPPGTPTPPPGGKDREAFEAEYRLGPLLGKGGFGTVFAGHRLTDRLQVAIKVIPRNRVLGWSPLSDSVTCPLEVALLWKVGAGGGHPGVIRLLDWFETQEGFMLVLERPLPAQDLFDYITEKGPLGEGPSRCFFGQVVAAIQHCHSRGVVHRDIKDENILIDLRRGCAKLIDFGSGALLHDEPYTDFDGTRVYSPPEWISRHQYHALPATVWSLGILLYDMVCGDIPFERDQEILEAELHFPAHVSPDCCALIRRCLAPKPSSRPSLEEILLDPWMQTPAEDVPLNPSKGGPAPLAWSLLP
Chain of Serine/threonine-protein kinase pim-1 (P11309 whole entry): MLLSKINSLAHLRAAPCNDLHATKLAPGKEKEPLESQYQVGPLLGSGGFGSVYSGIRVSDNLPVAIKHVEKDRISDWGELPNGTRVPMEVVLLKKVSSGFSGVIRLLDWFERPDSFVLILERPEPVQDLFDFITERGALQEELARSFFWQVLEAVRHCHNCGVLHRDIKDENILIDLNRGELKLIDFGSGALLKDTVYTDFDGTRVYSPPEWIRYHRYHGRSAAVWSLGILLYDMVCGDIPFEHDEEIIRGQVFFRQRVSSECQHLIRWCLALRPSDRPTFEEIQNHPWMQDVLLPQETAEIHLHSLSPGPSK
Chain of Casein kinase II (P67870 whole entry): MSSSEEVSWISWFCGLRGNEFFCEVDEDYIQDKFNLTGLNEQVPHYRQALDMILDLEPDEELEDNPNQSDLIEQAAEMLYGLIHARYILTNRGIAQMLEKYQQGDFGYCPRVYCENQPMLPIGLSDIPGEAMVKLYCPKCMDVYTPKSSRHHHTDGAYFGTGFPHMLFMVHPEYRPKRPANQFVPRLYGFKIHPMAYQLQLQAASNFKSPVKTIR
Chain of Casein kinase II (P68400 whole entry): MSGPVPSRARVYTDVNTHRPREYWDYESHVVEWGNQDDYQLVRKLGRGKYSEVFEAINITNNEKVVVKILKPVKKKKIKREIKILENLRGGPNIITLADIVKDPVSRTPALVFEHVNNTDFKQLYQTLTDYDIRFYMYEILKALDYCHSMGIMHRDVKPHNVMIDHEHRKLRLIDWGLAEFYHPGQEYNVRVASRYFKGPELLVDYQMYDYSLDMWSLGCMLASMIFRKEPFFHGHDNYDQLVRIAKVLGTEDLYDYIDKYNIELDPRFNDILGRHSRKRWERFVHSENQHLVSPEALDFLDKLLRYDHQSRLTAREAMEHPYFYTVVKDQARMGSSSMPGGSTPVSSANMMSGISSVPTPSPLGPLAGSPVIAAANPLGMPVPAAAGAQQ
Chain of Casein kinase II (P19784 whole entry): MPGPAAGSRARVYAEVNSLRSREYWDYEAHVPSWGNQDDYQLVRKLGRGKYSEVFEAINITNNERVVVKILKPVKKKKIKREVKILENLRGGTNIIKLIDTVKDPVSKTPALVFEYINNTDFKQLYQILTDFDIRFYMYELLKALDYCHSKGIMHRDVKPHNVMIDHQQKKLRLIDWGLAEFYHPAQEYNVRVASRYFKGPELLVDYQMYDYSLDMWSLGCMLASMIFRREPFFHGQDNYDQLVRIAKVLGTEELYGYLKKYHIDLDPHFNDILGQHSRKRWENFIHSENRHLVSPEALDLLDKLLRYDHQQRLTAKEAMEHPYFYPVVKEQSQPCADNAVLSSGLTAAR
Chain of Cell division cycle 7-related protein kinase (O00311 whole entry): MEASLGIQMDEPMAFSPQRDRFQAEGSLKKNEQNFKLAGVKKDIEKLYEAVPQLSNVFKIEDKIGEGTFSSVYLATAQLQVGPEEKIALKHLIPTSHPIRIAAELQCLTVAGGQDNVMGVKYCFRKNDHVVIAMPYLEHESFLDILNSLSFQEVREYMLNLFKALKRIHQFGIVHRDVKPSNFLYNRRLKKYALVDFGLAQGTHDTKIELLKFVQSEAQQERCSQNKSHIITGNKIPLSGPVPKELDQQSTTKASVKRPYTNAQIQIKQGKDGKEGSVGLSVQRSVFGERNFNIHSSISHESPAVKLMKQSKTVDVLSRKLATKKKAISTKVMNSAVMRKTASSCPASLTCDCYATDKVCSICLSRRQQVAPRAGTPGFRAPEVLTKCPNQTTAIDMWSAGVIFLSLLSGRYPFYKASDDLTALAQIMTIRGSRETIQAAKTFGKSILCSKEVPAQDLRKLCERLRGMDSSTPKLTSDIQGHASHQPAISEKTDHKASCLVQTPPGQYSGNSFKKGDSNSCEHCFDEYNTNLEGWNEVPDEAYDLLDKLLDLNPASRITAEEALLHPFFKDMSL

`O=C(CC1CNC(=O)c2cc(-c3cc(Cl)ccc3F)cn21)NCc1ccco1` (racemic): the results for the IC50 in data set [1] and in data set [2] were 2410 nM and 132 nM, respectively.
`CN1CCN(C[C@@H](NC(=O)C[C@H]2CNC(=O)c3cc(-c4cccc(F)c4)cn32)C2CCCCC2)CC1`: the IC50 amounted to 150 nM in [1], 490 nM in data set [3] and 9 nM in data set [2]. In addition, the CLint scaled in data set [4] amounted to 6.7 mL/min/kg.
As for `CN1CCN(C(=O)C[C@H]2CNC(=O)c3cc(-c4cccc(F)c4)cn32)[C@@H](c2ccccc2)C1`, the IC50 in data set [2] stood at 233 nM.
Take `NC[C@@H](NC(=O)C[C@H]1CNC(=O)c2cc(-c3cccc(F)c3)cn21)c1ccccc1`: the Papp A→B at 2 h in [5] turned out to be 0.6 ×10⁻⁶ cm/s. Also, the results for the IC50 in data set [3] and in [2] were above 10000 nM and 10 nM, respectively. For the same compound, in [4], the CLint scaled is 8.3 mL/min/kg.
`CC(C)(C)CNC(=O)CC1CNC(=O)c2cc(-c3ccccc3)cn21` (racemic): in [2], the IC50 came out at 2540 nM.
As for `CC(C)(C)CNC(=O)CC1CNC(=O)c2cc(-c3ccsc3)cn21` (racemic), in data set [4], the CLint scaled amounted to 81 mL/min/kg. Also, in data set [6], the Papp worked out at 48 ×10⁻⁶ cm/s. The same compound returned a Therm_solubility in [7] of 68 mg/mL. The IC50 (in data set [8]; at Casein kinase II) was above 10000 nM in each case.
As to `O=C(C[C@H]1CNC(=O)c2cc(-c3cccc(F)c3)cn21)N[C@H](CO)c1ccccc1`, the Papp A→B at 2 h in [5] was 2.7 ×10⁻⁶ cm/s. Moreover, the figures for the IC50 in [3] and in data set [2] were 3720 nM and 87 nM, respectively. For the same compound, the CLint scaled in [4] was determined as 55 mL/min/kg.
For `O=C(CC1CNC(=O)c2cc(-c3ccc(F)c(F)c3)cn21)NCC1CCCCC1` (racemic) the same measures were 11.8 ×10⁻⁶ cm/s, 1270 nM, 94 nM and 400 mL/min/kg.
Turning to `O=C(CC1CNC(=O)c2cc(-c3ccnc(Cl)n3)cn21)NCC1CCCCC1` (racemic), in data set [5], the Papp A→B at 2 h stood at 0.9 ×10⁻⁶ cm/s. Further, the IC50 in [1] was 1320 nM; in [3] it was above 5000 nM; in data set [2], 33 nM. The CLint scaled in [4] is 197 mL/min/kg.
Turning to `O=C(CC1CNC(=O)c2cc(-c3cccc(C(F)(F)F)c3)cn21)NCC1CCCCC1` (racemic), the IC50 in data set [2] was 375 nM.
With `NC[C@@H](NC(=O)C[C@H]1CNC(=O)c2cc(-c3ccnc(F)c3)cn21)c1ccccc1`, the Papp A→B at 2 h in data set [5] turned out to be 0.9 ×10⁻⁶ cm/s. For the same compound, in data set [3], the IC50 was above 10000 nM. In addition, the CLint scaled in data set [4] is 6.5 mL/min/kg.
In the case of `O=C(CC1CNC(=O)c2cc(-c3cn[nH]c3)cn21)NCc1cccc(F)c1` (racemic), the IC50 stood at 60 nM in data set [9], 284 nM in data set [10], 386 nM in [11] and 1100 nM in [2].
As for `O=C(CC1CNC(=O)c2cc(-c3cccc(C(F)(F)F)c3)cn21)NCC1CCOCC1` (racemic), the IC50 in data set [1] came out at 3130 nM; in [2], 838 nM.
With `O=C(C[C@H]1CNC(=O)c2cc(-c3cccc(F)c3)cn21)N[C@H](CO)C1CCCCC1`, in data set [5], the apparent permeability from apical to basolateral (Papp A→B) at 2 h turned out to be 1.1 ×10⁻⁶ cm/s. The results for the IC50 in [3] and in data set [2] were 1530 nM and 16 nM, respectively. Moreover, in [4], the CLint scaled was found to be 14.6 mL/min/kg.
Turning to `CN1CCN(C[C@@H](NC(=O)C[C@H]2CNC(=O)c3cc(-c4ccnc(F)c4)cn32)C2CCCCC2)CC1`, the Papp A→B at 2 h in data set [5] is 0.33 ×10⁻⁶ cm/s. In addition, the IC50 in data set [1] was determined as 95 nM; in [3], 2480 nM; in data set [2], 13 nM.
As for `C[C@@H](CN1CCN(C)CC1)NC(=O)C[C@H]1CNC(=O)c2cc(-c3cccc(Cl)c3)cn21`, the IC50 in [1] is above 5000 nM; in [2], 530 nM.
With `CC(C)(C)CNC(=O)CC1CNC(=O)c2cc(-c3cccc(C(F)(F)F)c3)cn21` (racemic), the IC50 in [2] came out at 521 nM.
For `O=C(C[C@H]1CNC(=O)c2cc(-c3cccc(F)c3)cn21)N[C@H](CO)Cc1ccccc1`, in data set [5], the Papp A→B at 2 h stood at 1.3 ×10⁻⁶ cm/s. Moreover, the results for the IC50 in [3] and in [2] were 3050 nM and 141 nM, respectively. Besides, in [4], the CLint scaled worked out at 87.8 mL/min/kg.
With `Cc1ccc(Cl)cc1-c1cc2n(c1)C(CC(=O)NCc1ccco1)CNC2=O` (racemic), the IC50 in data set [1] and in data set [2] was above 5000 nM each time.
As to `CC(C)(C)CNC(=O)CC1CNC(=O)c2cc(-c3ccc(OC(F)(F)F)cc3)cn21` (racemic), the IC50 in data set [2] was above 10000 nM.
Still for that read-out and setting: the result for `CC(C)(C)CNC(=O)CC1CNC(=O)c2cc(-c3cccc(F)c3)cn21` (racemic) reads 1940 nM.
With `O=C(CC1CNC(=O)c2cc(-c3ccc(F)c(F)c3)cn21)NCc1ccco1` (racemic), the IC50 in data set [3] is 3640 nM; in data set [2], 125 nM.
As for `CN1CCN(C[C@@H](NC(=O)C[C@H]2CNC(=O)c3cc(-c4cccc(Cl)c4)cn32)C(C)(C)C)CC1`, the IC50 in data set [1] was found to be 262 nM; in [2], 5 nM.
Regarding `NC[C@@H](NC(=O)C[C@H]1CNC(=O)c2cc(-c3cccc(F)c3)cn21)C1CCCCC1`, the Papp A→B at 2 h in data set [5] was found to be 0.8 ×10⁻⁶ cm/s. The values for the IC50 in [1], in data set [3] and in data set [2] were 275 nM, above 10000 nM and 12 nM, respectively. Also, the CLint scaled in data set [4] is 10.1 mL/min/kg.
Take `CC(C)(C)CNC(=O)CC1CNC(=O)c2cc(-c3cccc(OC(F)(F)F)c3)cn21` (racemic): the IC50 in data set [2] worked out at 1270 nM.
As to `CN1CCN(C[C@@H](NC(=O)C[C@H]2CNC(=O)c3cc(-c4ccc(F)c(F)c4)cn32)C2CCCCC2)CC1`, the IC50 is 250 nM in [1], 156 nM in data set [3] and 26 nM in data set [2].
For the compound `O=C(CC1CNC(=O)c2cc(-c3cccc(Cl)c3)cn21)NCc1ccco1` (racemic), the Papp A→B at 2 h in data set [5] was 33.1 ×10⁻⁶ cm/s. It took 2430 nM to reach half-maximal inhibition in [3] (IC50). Moreover, in data set [4], the CLint scaled came to 97.4 mL/min/kg.
For `CN(C)C1CCN(C[C@@H](NC(=O)C[C@H]2CNC(=O)c3cc(-c4cccc(Cl)c4)cn32)C2CCCCC2)CC1` the same measures were 1.01 ×10⁻⁶ cm/s, 480 nM and 5 mL/min/kg.
As to `CN1CCN(C[C@@H](NC(=O)C[C@H]2CNC(=O)c3cc(-c4cc(Cl)ccc4F)cn32)C2CCCCC2)CC1`, inhibition in [3] was half-maximal at 147 nM (IC50).
Turning to `O=C(CC1CNC(=O)c2cc(-c3ccccc3F)cn21)NCC1CCCCC1` (racemic), the Papp A→B at 2 h in [5] came to 11.9 ×10⁻⁶ cm/s. For the same compound, the IC50 is 1790 nM in data set [3] and 124 nM in [2]. In [4], the CLint scaled is 400 mL/min/kg.
Consider `CC(C)(C)CNC(=O)CC1CNC(=O)c2cc(-c3ccccc3F)cn21` (racemic), for which the IC50 in data set [2] came to 1720 nM.
Regarding `O=C(CC1CNC(=O)c2cc(-c3cccc(C(F)(F)F)c3)cn21)NCc1cccc(F)c1` (racemic), the IC50 in data set [2] is 614 nM.
The same measure, in the same setting: the result for `CC(C)(C)CNC(=O)CC1CNC(=O)c2cc(-c3ccc(F)cc3)cn21` (racemic) reads 2550 nM.
As to `O=C(CC1CNC(=O)c2cc(-c3cccc(F)c3)cn21)NCC1CCCCC1` (racemic), the Papp A→B at 2 h in data set [5] stood at 11.2 ×10⁻⁶ cm/s. Besides, in data set [3], 1110 nM corresponded to half-maximal inhibition (IC50). The CLint scaled in [4] was determined as 48.5 mL/min/kg.
As to `CC(C)(C)CNC(=O)CC1CNC(=O)c2cc(-c3ccncc3)cn21` (racemic), the IC50 came out at 4610 nM in [11] and 5470 nM in data set [2].

The values are drawn from ChEMBL document CHEMBL3297733, “Discovery and optimization of pyrrolo[1,2-a]pyrazinones leads to novel and selective inhibitors of PIM kinases” (Bioorg Med Chem, 2013).
